Experimental data taken from PMC7824769, “Identification of Small Molecules Blocking the Pseudomonas aeruginosa Type III Secretion System Protein PcrV” (Biomolecules, 2021).
Where “and” joins values, the source holds several entries; their conditions need not be identical. Equal entries are not always repeated.

Tests used:
PcrV [1] = biological target: T1, PcrV (Pseudomonas aeruginosa, UniProt G3XD49); assay: SPR dose-response binding to immobilized PcrV (equilibrium analysis)
Protocol: The SPR screening was performed using the ProteOn^TM XPR36 Protein Interaction Array System (Bio-Rad Laboratories Inc., Hercules, CA, USA) with ProteOn GLH sensor chip (Bio-Rad Laboratories Inc., Hercules, CA, USA), and the results were analyzed with the ProteOn Manager software^TM (Bio-Rad Laboratories Inc., Hercules, CA, USA), Excel 2016 (Microsoft Office), and GraphPad Prism 7.04. All SPR experiments were performed at 25 °C. The multichannel module of the ProteOn system was in the vertical position during protein immobilization. The proteins were attached to the surface of a GLH sensor chip via amine coupling chemistry. A buffer scouting was performed to elucidate the optimal binding conditions of PcrV to the GLH sensor chip. First, channels 1–4 on the chip surface were activated using a 1:1 mixture of 40 mM 1-ethyl-3-(3-dimethylaminopropyl)carbodiimide hydrochloride (EDAC) (Bio-Rad Laboratories Inc., Hercules, CA, USA) and 10 mM N-hydroxysulfosuccinimide (sulfo-NHS, Bio-Rad Laboratories Inc., Hercules, CA, USA) for 300 s at 30 µL/min. Next, the proteins PcrV (33,398.6 Da, 6.37 mg/mL) was diluted in 10 mM NaOAc (pH 4, 4.5, and 5) to 0.05 mg/mL. PcrV was immobilized in channel 1–3 for 540 s at 30 µL/min. Channel 4 was flushed with 10 mM NaOAc (pH 5) for 540 s at 30 µL/min. As deactivating agent, a 1:1 mixture of 1 M ethanolamine and milli-Q filtered water was used. The deactivating solution was injected over all four channels for 300 s at 30 µL/min. Phosphate buffered saline with Tween (PBST; 10 mM phosphate buffer pH 7.4, 140 mM NaCl, 2.7 mM KCl, and 0.05% Tween 20) was used as the running buffer. The final amount of immobilized protein was measured in resonance units (RU) relative to the signal of the baseline prior activation. […] Immobilization of PcrV diluted in sodium acetate of pH 4.5 in one channel and of pH 5 in one channel were used in the beginning of the screening procedure (for plate 1–26). Since no difference was found between the two pH values, the PcrV protein was diluted in sodium acetate at pH 5 only (in two channels) from plate 27 and the rest of the screen. The immobilization procedure for the screening was performed as described above with the addition that the control protein carbonic anhydrase isoenzyme II from bovine erythrocytes (CAII, Sigma-Aldrich, article number 2522) was immobilized in one channel that was activated and deactivated as described above. CAII (1 mg/mL in PBS) was deactivated when diluted in 10 mM sodium acetate (pH 4) to 0.05 mg/mL. Immobilization level of the deactivated CAII was 18,000 RU. Deactivated CAII was used as a control protein according to the recommendations by the ProteOn manufacturer (Bio-Rad Laboratories Inc., Hercules, CA, USA). As running buffer, we employed PBS (pH 7.4, 0.05% Tween 20).
First, the PcrV protein was immobilized in two channels as described above while keeping a blank channel which was activated and deactivated as described above. The multichannel module of the ProteOn system was in horizontal position during the small molecule interaction studies. They were serially diluted to (400,) 200, 100, 50, 25, 12.5, 6.25, and (3.125); or 100, 50, 25, and 12.5 µM; or 100, 66.7, 44.4, 29.6, 19.7, and 13.2 µM in PBST (0.05% Tween 20) with a total concentration of 5% DMSO in 96-well plates. The running buffer was PBST (0.05% Tween 20) containing 5% DMSO. The analytes were injected at a flowrate of 100 µL/min, contact time was 60 s, and dissociation time was 60–120 s. Solvent correction was performed continuously during the experiments to account for bulk response of DMSO. The data was then baseline-aligned, processed by channel referencing with the blank channel, and solvent-corrected. The equilibrium dissociation constant (KD) values were determined from equilibrium analysis in the ProteOn Manager software^TM. Solubility problems frequently hampered KD determination since the small molecules could not always be dissolved in concentrations high enough to reach a plateau. […]

P. aeruginosa strain PAK = assay: Bacterial toxicity (growth) assay, OD600; format: cell-based, Pseudomonas aeruginosa; conditions: 200, 100, 50 and 25 µM; OD600 for 8 h
Protocol: Overnight culture of the P. aeruginosa strain PAK was diluted in LB (Luria Broth) to an OD600 of 0.2. The bacteria were added into microtiter plates, and 25, 50, 100, and 200 µM of the potential binders were added in triplicates to the bacteria with a final concentration of 1% DMSO. […] Wells with 1% DMSO without substance were used as positive controls.

PcrV [2] = biological target: T1, PcrV; assay: 1H NMR relaxation-edited binding experiment; conditions: compound 100 µM, PcrV 10 µM
Protocol: A solution containing 100 µM of the small molecule was prepared from 20 mM stock solution of the tested compound in DMSO and diluted in PBS (pH 7.4) containing trimethylsilyl propanoic acid (TMSP) as an internal standard. This solution was then split into halves and used for preparation of the test and the reference samples as follows: the test sample was prepared by adding 24 µL of 0.211 mM PcrV protein stock solution, resulting in a final protein concentration of 10 µM, whereas the reference sample was prepared by adding the corresponding volume of PBS buffer only before being transferred to 5-mm NMR tubes. The relaxation-edited experiments shown in Figure 3D were recorded on Bruker 600 MHz, and data were acquired at 298 K. Data from 256 scans were accumulated, and a Carr-Purcell-Meiboom-Gill (cpmg) spin-lock of 200 ms was used. Excitation sculpture was applied for water suppression.
To confirm the binding data obtained from the SPR, a secondary qualitative label-free binding experiment based on ^1H-NMR was performed.

[3] = KD ± standard error of KD (Table S1), single experiment, standard error from ProteOn Manager software
[4] = SPR KD, equilibrium analysis, mean ± SD of three or more independent experiments, individual values where n < 3, 25 °C, PBST 5% DMSO

T1 sequence (G3XD49 entry or part of it): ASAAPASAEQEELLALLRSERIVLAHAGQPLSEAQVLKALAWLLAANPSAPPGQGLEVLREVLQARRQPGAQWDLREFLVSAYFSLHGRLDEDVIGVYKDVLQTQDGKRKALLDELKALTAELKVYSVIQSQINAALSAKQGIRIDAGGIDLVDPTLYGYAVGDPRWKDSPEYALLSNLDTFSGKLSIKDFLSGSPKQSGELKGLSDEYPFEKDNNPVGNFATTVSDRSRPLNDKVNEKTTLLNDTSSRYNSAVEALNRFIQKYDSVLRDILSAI

Row | Compound | Kd (PcrV [1]; [3]) [µM] | Kd (PcrV [1]; [4]) | Rmax (Table S1) (PcrV [1]; single experiment) | Effect on bacterial growth (P. aeruginosa strain PAK) | 1H NMR binding to PcrV (qualitative) (PcrV [2]) | Kd (PcrV [1]; KD (equilibrium analysis, Figure 3B), one representative experiment, binding levels at 45-55 s) [µM] | Rmax (equilibrium analysis, Figure 3B) (PcrV [1]; one representative experiment) [RU]
1 | Cc1c(Br)ccc(OC[C@@H]2C[C@H]2C(=O)O)c1C (relative stereo) [Compound 32] | 61.1 ± 16.9 | ~60 µM and 61 to 63 µM and 61 µM | 81.8 | without affecting bacterial growth |  |  | 
2 | Cc1c(Br)ccc(OC[C@@H]2C[C@@H]2C(=O)O)c1C (relative stereo) [Compound 33] | 59.5 ± 11.1 | ~60 µM and 61 to 63 µM and 63 µM | 76.8 | without affecting bacterial growth |  |  | 
3 | Cc1c(Br)ccc(OCCCC(=O)O)c1C [Compound H1] |  | < 150 µM and 106 µM |  |  | signal reduction | 98.3 | 71.3
